Molecular target: T1, hFP (Homo sapiens, UniProt P43088)
T1 construct: expressed in transfected cells; host or cells: COS-7 cells, transient transfection with LipofectAMINE; membranes prepared
Assay: Radioligand Binding Assay (receptor competition binding, hFP membranes)
Settings: competition against 5 nM (3H) PGF2 on hFP membrane from transfected COS-7 cells; method per Reference Example 1; read-out: IC50 of the Prostaglandin
Experimental: IC50 of a prostaglandin can be determined relative to PGF2α using the Radioligand Binding Assay. As a control, the IC50 for PGF2α itself should be no lower than 1.0 nM and no higher than 5.0 nM.
In this assay, COS-7 cells are transiently transfected with the hFP recombinant plasmid using LipofectAMINE Reagent. Forty-eight hours later, the tranfected cells are washed with Hank's Balanced Salt Solution (HBSS, without CaCl2, MgCl2, MgSO4, or phenol red). The cells are detached with versene, and HBSS is added. The mixture is centrifuged at 200g for 10 minutes, at 4° C. to pellet the cells. The pellet is resuspended in Phosphate-Buffered Saline-EDTA buffer (PBS; 1 mM EDTA; pH 7.4; 4° C.). The cells are disrupted by nitrogen cavitation (Parr model 4639), at 800 psi, for 15 minutes at 4° C. The mixture is centrifuged at 1000 g for 10 minutes at 4° C. The supernatant is centrifuged at 100,000 g for 60 minutes at 4° C. The pellet is resuspended to 1 mg protein/mL TME buffer (50 mM Tris; 10 mM MgCl2; 1 mM EDTA; pH 6.0; 4° C.) based on protein levels measured using the Pierce BCA Protein Assay kit. The homogenate is mixed for 10 seconds using a Kinematica POLYTRON® (available from KINEMATICA AG, Luzernerstrasse147A CH-6014 Littau, Switzerland). The membrane preparations are then stored at −80° C., until thawed for assay use.
The receptor competition binding assays are developed in a 96 well format. Each well contains […] of hFP membrane, 5 nM (3H) PGF2, and the various competing compounds in a total volume of […]. The plates are incubated at 23° C. for 1 hour. The incubation is terminated by rapid filtration using the Packard Filtermate 196 harvester through Packard UNIFILTER® GF/B filters (available from Packard Instrument Co., Inc. of Downers Grove Ill.) pre-wetted with TME buffer. The filter is washed four times with TME buffer. […] The plates are read on a Packard TOPCOUNT® Microplate Scintillation Counter (also available from Packard Instrument Co., Inc.)

T1 sequence (P43088 whole entry): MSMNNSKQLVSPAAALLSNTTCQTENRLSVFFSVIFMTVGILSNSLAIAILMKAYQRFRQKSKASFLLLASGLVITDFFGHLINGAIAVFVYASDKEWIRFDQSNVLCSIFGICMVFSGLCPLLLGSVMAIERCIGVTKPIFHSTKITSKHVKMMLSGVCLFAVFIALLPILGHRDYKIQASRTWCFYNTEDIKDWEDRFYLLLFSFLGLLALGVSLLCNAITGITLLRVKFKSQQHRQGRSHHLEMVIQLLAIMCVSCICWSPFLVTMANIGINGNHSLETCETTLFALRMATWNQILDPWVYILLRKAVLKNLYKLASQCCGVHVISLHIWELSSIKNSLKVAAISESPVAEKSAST

O=C(O)CCCCCC[C@H]1[C@@H](O)C/C(=N/O)[C@@H]1CC[C@@H](O)CSc1ccccc1
IC50: 0.162 µM

CCCCC[C@H](O)/C=C/[C@H]1/C(=N\O)C[C@H](O)[C@@H]1C/C=C\CCCC(=O)O [Example 1-1]
IC50: 0.015 µM

CCCCC[C@H](O)/C=C/[C@H]1C(NO)C[C@H](O)[C@@H]1C/C=C\CCCC(=O)O (stereo partly drawn) [Example 1-2]
IC50: 0.15 µM

Reference: patent US20060121069A1, “Compositions and methods for treating hair loss using oximyl and hydroxylamino prostaglandins” (Duke University, priority 2000, published 2006)
